According to ChEMBL document CHEMBL5260842 (J Med Chem, 2019):
Activity calls are given as the source filed them. The rule behind the calls is not given here.

Experiments:
LNCaP [1] = test: Downregulation of TMPRSS2 mRNA expression in human LNCaP cells measured after 24 hrs by qRT-PCR analysis; assay type: functional, cell-based; settings: dose 0.1-10000 nM
[2] = Downregulation of PSA mRNA expression in human VCaP cells at 10 nM measured after 24 hrs by charcoal stripped serum based qRT-PCR analysis relative to control; assay type: functional
[3] = molecular target: T1, von Hippel-Lindau disease tumor suppressor/Androgen receptor (Homo sapiens, UniProt P10275+P40337); test: Protac activity at VHL/AR in AR-positive human LNCaP cells assessed as reduction in protein level at 100 nM measured after 2 to 4 hrs by Western blot analysis; assay type: cell-based; settings: time 2-4 hrs
Target sequence in this assay (P10275 whole entry, looked up): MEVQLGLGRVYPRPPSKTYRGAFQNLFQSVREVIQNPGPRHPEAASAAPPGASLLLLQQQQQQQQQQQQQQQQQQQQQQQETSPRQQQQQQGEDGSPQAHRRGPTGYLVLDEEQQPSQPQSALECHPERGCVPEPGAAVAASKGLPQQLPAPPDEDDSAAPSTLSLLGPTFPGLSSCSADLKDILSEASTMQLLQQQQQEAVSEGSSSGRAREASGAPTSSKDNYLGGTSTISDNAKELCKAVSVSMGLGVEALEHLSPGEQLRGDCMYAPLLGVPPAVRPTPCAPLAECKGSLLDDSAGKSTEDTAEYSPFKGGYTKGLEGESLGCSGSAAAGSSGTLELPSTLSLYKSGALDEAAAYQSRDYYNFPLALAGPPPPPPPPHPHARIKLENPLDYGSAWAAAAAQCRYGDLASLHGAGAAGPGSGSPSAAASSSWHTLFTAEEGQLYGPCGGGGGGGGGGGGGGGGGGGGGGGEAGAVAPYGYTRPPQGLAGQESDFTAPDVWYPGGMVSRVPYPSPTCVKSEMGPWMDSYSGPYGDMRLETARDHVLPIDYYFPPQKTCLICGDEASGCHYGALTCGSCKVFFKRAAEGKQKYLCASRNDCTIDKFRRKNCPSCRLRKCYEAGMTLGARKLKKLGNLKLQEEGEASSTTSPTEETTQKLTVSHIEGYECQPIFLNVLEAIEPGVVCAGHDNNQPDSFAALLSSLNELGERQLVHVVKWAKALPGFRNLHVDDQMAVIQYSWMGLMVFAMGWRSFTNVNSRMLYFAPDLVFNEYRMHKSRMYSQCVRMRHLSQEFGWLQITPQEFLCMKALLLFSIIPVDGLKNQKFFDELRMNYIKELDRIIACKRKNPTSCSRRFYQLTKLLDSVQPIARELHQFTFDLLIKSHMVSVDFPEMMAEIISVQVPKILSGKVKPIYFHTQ
Target sequence in this assay (P40337 whole entry, looked up): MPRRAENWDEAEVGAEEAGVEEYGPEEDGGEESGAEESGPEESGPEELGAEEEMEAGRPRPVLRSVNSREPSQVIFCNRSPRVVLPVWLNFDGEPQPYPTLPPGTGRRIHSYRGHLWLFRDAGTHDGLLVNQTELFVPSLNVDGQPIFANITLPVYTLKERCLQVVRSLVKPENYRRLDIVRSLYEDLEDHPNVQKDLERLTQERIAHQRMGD

[4] = molecular target: T1, von Hippel-Lindau disease tumor suppressor/Androgen receptor; test: (§1) Protac activity at VHL/AR in AR-positive human VCaP cells assessed as induction of androgen receptor degradation at 100 nM preincubated with N-((1r,3r)-3-(3-chloro-4-cyanophenoxy)-2,2,4,4-tetramethylcyclobutyl)-1-(2-hydroxyethyl)-1H-pyrazole-4-carboxamide for 2 hrs followed by compound addition and measured after 6 hrs by Western blot analysis; assay type: cell-based
Target sequence in this assay (P10275 whole entry, looked up): as the sequence (P10275 whole entry, looked up) above
Target sequence in this assay (P40337 whole entry, looked up): as the sequence (P40337 whole entry, looked up) above

VCaP [5] = test: Cytotoxicity against AR-positive human VCaP cells assessed as inhibition of cell growth incubated for 7 days in presence of AR agonist, R1881 in charcoal stripped medium by WST-8 assay; assay type: functional, cell-based; settings: 168 h
[6] = molecular target: T1, von Hippel-Lindau disease tumor suppressor/Androgen receptor; test: In vivo protac activity at VHL/AR in human VCaP cells xenografted SCID mouse assessed as reduction in PSA protein level in tumor at 50 mg/kg, ip administered as single dose measured after 3 to 48 hrs Western blot analysis; assay type: functional, organism-based; settings: time 3-48 hrs
Target sequence in this assay (P10275 whole entry, looked up): as the sequence (P10275 whole entry, looked up) above
Target sequence in this assay (P40337 whole entry, looked up): as the sequence (P40337 whole entry, looked up) above

[7] = molecular target: T1, von Hippel-Lindau disease tumor suppressor/Androgen receptor; test: Protac activity at VHL/AR in AR-positive human VCaP cells assessed as induction of androgen receptor degradation at 100 nM preincubated with NEDD8 activating E1 enzyme inhibitor, MLN4924 for 2 hrs followed by compound addition and measured after 6 hrs by Western blot analysis; assay type: cell-based
Target sequence in this assay (P10275 whole entry, looked up): as the sequence (P10275 whole entry, looked up) above
Target sequence in this assay (P40337 whole entry, looked up): as the sequence (P40337 whole entry, looked up) above

VCaP [8] = test: Downregulation of TMPRSS2 mRNA expression in human VCaP cells measured after 24 hrs by regular serum based qRT-PCR analysis; assay type: functional, cell-based; settings: dose 1-1000 nM
[9] = molecular target: T1, von Hippel-Lindau disease tumor suppressor/Androgen receptor; test: Protac activity at VHL/AR in AR-positive human LNCaP cells assessed as induction of androgen receptor degradation at 0.1 uM incubated for 6 hrs by Western blot analysis (reference value: 0%); assay type: cell-based
Target sequence in this assay (P10275 whole entry, looked up): as the sequence (P10275 whole entry, looked up) above
Target sequence in this assay (P40337 whole entry, looked up): as the sequence (P40337 whole entry, looked up) above

VCaP [10] = test: Downregulation of PSA mRNA expression in human VCaP cells measured after 24 hrs by charcoal stripped serum based qRT-PCR analysis; assay type: functional, cell-based; settings: dose 1-1000 nM
[11] = molecular target: T1, von Hippel-Lindau disease tumor suppressor/Androgen receptor; test: Protac activity at VHL/AR in human LNCaP cells assessed as induction of protein degradation measured after 24 hrs by Western blot analysis; assay type: cell-based
Target sequence in this assay (P10275 whole entry): as the sequence (P10275 whole entry, looked up) above
Target sequence in this assay (P40337 whole entry): as the sequence (P40337 whole entry, looked up) above

[12] = molecular target: T1, von Hippel-Lindau disease tumor suppressor/Androgen receptor; test: Protac activity at VHL/AR in AR-positive human LNCaP cells assessed as induction of androgen receptor degradation at 0.01 uM incubated for 6 hrs by Western blot analysis (reference value: 0%); assay type: cell-based
Target sequence in this assay (P10275 whole entry, looked up): as the sequence (P10275 whole entry, looked up) above
Target sequence in this assay (P40337 whole entry, looked up): as the sequence (P40337 whole entry, looked up) above

CWR22R [13] = test: Potency index, ratio of enzalutamide IC50 to test compound IC50 for cytotoxicity against AR-positive human 22Rv1 cells assessed as inhibition of cell growth incubated for 7 days in regular culture medium by WST-8 assay; assay type: functional; settings: time 7 day
[14] = Downregulation of PSA mRNA expression in human LNCaP cells at 10 nM measured after 24 hrs by qRT-PCR analysis relative to control; assay type: functional
VCaP [15] = test: Downregulation of TMPRSS2 mRNA expression in human VCaP cells measured after 24 hrs by charcoal stripped serum based qRT-PCR analysis; assay type: functional, cell-based; settings: dose 1-1000 nM
[16] = molecular target: T1, von Hippel-Lindau disease tumor suppressor/Androgen receptor; test: Protac activity at VHL/AR in human 22Rv1 cells assessed as induction of protein degradation measured after 24 hrs by Western blot analysis; assay type: cell-based
Target sequence in this assay (P10275 whole entry): as the sequence (P10275 whole entry, looked up) above
Target sequence in this assay (P40337 whole entry): as the sequence (P40337 whole entry, looked up) above

[17] = Downregulation of TMPRSS2 mRNA expression in human VCaP cells at 10 nM measured after 24 hrs by charcoal stripped serum based qRT-PCR analysis relative to control; assay type: functional
CWR22R [18] = test: Cytotoxicity against AR-positive human 22Rv1 cells assessed as inhibition of cell growth incubated for 7 days in regular culture medium by WST-8 assay; assay type: functional, cell-based; settings: 22Rv1, 168 h
VCaP [19] = test: Potency index, ratio of enzalutamide IC50 to test compound IC50 for cytotoxicity against AR-positive human VCaP cells assessed as inhibition of cell growth incubated for 7 days in presence of AR agonist, R1881 in charcoal stripped medium by WST-8 assay; assay type: functional; settings: time 7 day
VCaP [20] = test: Downregulation of FKBP5 mRNA expression in human VCaP cells measured after 24 hrs by regular serum based qRT-PCR analysis; assay type: functional, cell-based; settings: dose 1-1000 nM
[21] = system: von Hippel-Lindau disease tumor suppressor/Androgen receptor (Homo sapiens); test: In vivo protac activity at VHL/AR in human VCaP cells xenografted SCID mouse assessed as reduction in AR protein level in tumor at 50 mg/kg, ip administered as single dose measured after 3 to 48 hrs Western blot analysis; settings: time 3-48 hrs
VCaP [22] = test: Downregulation of ERG gene expression in human VCaP cells measured after 24 hrs by regular serum based qRT-PCR analysis; assay type: functional, cell-based; settings: dose 1-1000 nM
[23] = Downregulation of TMPRSS2 mRNA expression in human VCaP cells at 10 nM measured after 24 hrs by regular serum based qRT-PCR analysis relative to control; assay type: functional
LNCaP [24] = test: Cytotoxicity against AR-positive human LNCaP cells assessed as inhibition of cell growth incubated for 7 days in presence of AR agonist, R1881 in charcoal stripped medium by WST-8 assay; assay type: functional, cell-based; settings: 168 h
[25] = molecular target: T1, von Hippel-Lindau disease tumor suppressor/Androgen receptor; test: Protac activity at VHL/AR in AR-positive human VCaP cells assessed as induction of androgen receptor degradation at 100 nM preincubated with proteasome inhibitor, MG132 for 2 hrs followed by compound addition and measured after 6 hrs by Western blot analysis; assay type: cell-based
[26] = molecular target: T1, von Hippel-Lindau disease tumor suppressor/Androgen receptor; test: Protac activity at VHL/AR in AR-positive human VCaP cells assessed as reduction in protein level at 100 nM measured after 2 to 4 hrs by Western blot analysis; assay type: cell-based; settings: time 2-4 hrs
LNCaP [27] = test: Downregulation of FKBP5 mRNA expression in human LNCaP cells measured after 24 hrs by qRT-PCR analysis; assay type: functional, cell-based; settings: dose 0.1-10000 nM
[28] = molecular target: T1, von Hippel-Lindau disease tumor suppressor/Androgen receptor; test: Protac activity at VHL/AR in AR-positive human LNCaP cells assessed as induction of androgen receptor degradation at 100 nM preincubated with NEDD8 activating E1 enzyme inhibitor, MLN4924 for 2 hrs followed by compound addition and measured after 6 hrs by Western blot analysis; assay type: cell-based
LNCaP [29] = test: Potency index, ratio of enzalutamide IC50 to test compound IC50 for cytotoxicity against AR-positive human LNCaP cells assessed as inhibition of cell growth incubated for 7 days in presence of AR agonist, R1881 in charcoal stripped medium by WST-8 assay; assay type: functional; settings: time 7 day
[30] = molecular target: T1, von Hippel-Lindau disease tumor suppressor/Androgen receptor; test: Protac activity at VHL/AR in human VCaP cells assessed as induction of protein degradation at 10 nM measured after 24 hrs by Western blot analysis relative to control; assay type: cell-based
VCaP [31] = test: Downregulation of PSA mRNA expression in human VCaP cells measured after 24 hrs by regular serum based qRT-PCR analysis; assay type: functional, cell-based; settings: dose 1-1000 nM
[32] = molecular target: T1, von Hippel-Lindau disease tumor suppressor/Androgen receptor; test: as §1, with “LNCaP” for “VCaP”; assay type: cell-based
[33] = Downregulation of PSA mRNA expression in human VCaP cells at 10 nM measured after 24 hrs by regular serum based qRT-PCR analysis relative to control; assay type: functional
LNCaP [34] = test: Downregulation of PSA mRNA expression in human LNCaP cells measured after 24 hrs by qRT-PCR analysis; assay type: functional, cell-based; settings: dose 0.1-10000 nM
[35] = molecular target: T1, von Hippel-Lindau disease tumor suppressor/Androgen receptor; test: (§2) Protac activity at VHL/AR in AR-positive human LNCaP cells assessed as induction of androgen receptor degradation at 100 nM preincubated with VHL ligand, (2S,4R)-4-hydroxy-1-((R)-3-methyl-2-(3-methylisoxazol-5-yl)butanoyl)-N-((S)-3-(methylamino)-1-(4-(4-methylthiazol-5-yl)phenyl)-3-oxopropyl)pyrrolidine-2-carboxamide for 2 hrs followed by compound addition and measured after 6 hrs by Western blot analysis; assay type: cell-based
VCaP [36] = test: Downregulation of ERG gene expression in human VCaP cells measured after 24 hrs by charcoal stripped serum based qRT-PCR analysis; assay type: functional, cell-based; settings: dose 1-1000 nM
[37] = molecular target: T1, von Hippel-Lindau disease tumor suppressor/Androgen receptor; test: as §2, with “VCaP” for “LNCaP”; assay type: cell-based
[38] = Downregulation of TMPRSS2 mRNA expression in human LNCaP cells at 10 nM measured after 24 hrs by qRT-PCR analysis relative to control; assay type: functional
[39] = molecular target: T1, von Hippel-Lindau disease tumor suppressor/Androgen receptor; test: Protac activity at VHL/AR in AR-positive human LNCaP cells assessed as induction of androgen receptor degradation at 100 nM preincubated with proteasome inhibitor, MG132 for 2 hrs followed by compound addition and measured after 6 hrs by Western blot analysis; assay type: cell-based
[40] = molecular target: T1, von Hippel-Lindau disease tumor suppressor/Androgen receptor; test: Protac activity at VHL/AR in human VCaP cells assessed as induction of protein degradation measured after 24 hrs by Western blot analysis; assay type: cell-based
Target sequence in this assay (P10275 whole entry): as the sequence (P10275 whole entry, looked up) above
Target sequence in this assay (P40337 whole entry): as the sequence (P40337 whole entry, looked up) above

VCaP [41] = test: Downregulation of FKBP5 mRNA expression in human VCaP cells measured after 24 hrs by charcoal stripped serum based qRT-PCR analysis; assay type: functional, cell-based; settings: dose 1-1000 nM

- Activity [3]: Active
- Activity [4]: inactive
- Activity [6]: Active
- Activity [7]: inactive
- Activity [9]: 99%
- EC50 [11]: 0.86 nM
- Activity [12]: 89%
- EC50 [16]: 10.4 nM
- Activity [21]: Active
- Activity [25]: inactive
- Activity [26]: Active
- Activity [28]: inactive
- Activity [30]: > 95%
- Activity [32]: inactive
- Activity [35]: inactive
- Activity [37]: inactive
- Activity [39]: inactive
- EC50 [40]: 0.76 nM
Compound: Cc1ncsc1-c1ccc([C@H](CC(=O)N2CCC(N3CCC(C#Cc4ccc(C(=O)N[C@H]5C(C)(C)[C@H](Oc6ccc(C#N)c(Cl)c6)C5(C)C)cc4)CC3)CC2)NC(=O)[C@@H]2C[C@@H](O)CN2C(=O)[C@@H](NC(=O)C2(F)CC2)C(C)(C)C)cc1
- Activity (LNCaP [1]): Dose-Dependent Effect
- Activity [2]: >50%
- IC50 (VCaP [5]): 0.34 nM
- Activity (VCaP [8]): Dose-Dependent Effect
- Activity (VCaP [10]): Dose-Dependent Effect
- Ratio IC50 (CWR22R [13]): >100
- Activity [14]: >50%
- Activity (VCaP [15]): Dose-Dependent Effect
- Activity [17]: >50%
- IC50 (CWR22R [18]): 183 nM
- Ratio IC50 (VCaP [19]): >100
- Activity (VCaP [20]): Dose-Dependent Effect
- Activity (VCaP [22]): Dose-Dependent Effect
- Activity [23]: >50%
- IC50 (LNCaP [24]): 0.25 nM
- Activity (LNCaP [27]): Dose-Dependent Effect
- Ratio IC50 (LNCaP [29]): >100
- Activity (VCaP [31]): Dose-Dependent Effect
- Activity [33]: >50%
- Activity (LNCaP [34]): Dose-Dependent Effect
- Activity (VCaP [36]): Dose-Dependent Effect
- Activity [38]: >50%
- Activity (VCaP [41]): Dose-Dependent Effect
